# According to US11149018B2, “Substituted N-arylethyl-2-aminoquinoline-4-carboxamides and use thereof” (Bayer Aktiengesellschaft, priority 2017, dated 2021):
# Target: FP receptor (Homo sapiens (Human), UniProt P43088)
# Assay: In vitro test of inhibition of human FP receptor activity (PGF2α-induced calcium flux in FP-expressing CHEM1 cells)
# Format: cell-based
# Settings: PGF2α 2 nM, some mean values of multiple determinations
# How it was run: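 FP antagonism in FP-expressing CHEM1 cells loaded with Fluo-8. Compound preincubated 10 min at 37° C, then receptor stimulated with 2 nM (final) PGF2α in calcium-free Tyrode with 2 mM CaCl2.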
# Sequence of FP receptor (P43088 whole entry): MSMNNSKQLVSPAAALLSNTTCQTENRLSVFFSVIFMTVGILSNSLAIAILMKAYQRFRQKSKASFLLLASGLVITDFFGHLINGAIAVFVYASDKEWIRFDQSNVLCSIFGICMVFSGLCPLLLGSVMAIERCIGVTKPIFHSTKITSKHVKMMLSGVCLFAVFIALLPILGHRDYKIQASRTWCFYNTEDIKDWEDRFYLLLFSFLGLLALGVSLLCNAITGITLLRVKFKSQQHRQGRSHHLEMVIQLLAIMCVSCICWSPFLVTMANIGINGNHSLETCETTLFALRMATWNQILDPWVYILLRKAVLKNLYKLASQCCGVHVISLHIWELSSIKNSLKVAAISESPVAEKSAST
row,IC50 [nM],Compound
1,55,"Cc1c(N2CCCC2)nc2ccc(Br)cc2c1C(=O)NCC(CCC(=O)O)c1c(F)cccc1F (racemic) [Example 247, (+/−)-5-({[6-Bromo-3-methyl-2-(pyrrolidin-1-yl)quinolin-4-yl]carbonyl}amino)-4-(2,6-difluorophenyl)pentanoic acid hydrogenformate]"
2,59,"Cc1c(N2CCCOCC2)nc2ccc(Br)cc2c1C(=O)NCC(CCC(=O)O)c1ccccc1Cl (racemic) [Example 90, (+/−)-5-({[6-Bromo-3-methyl-2-(1,4-oxazepan-4-yl)quinolin-4-yl]carbonyl}amino)-4-(2-chlorophenyl)pentanoic acid]"
3,2.8,"CCC1CCCN(c2nc3ccc(Br)cc3c(C(=O)NCC(CCC(=O)O)c3ccccc3C(F)(F)F)c2C)C1 (centres unmarked) [Example 124, 5-[({6-Bromo-2-[3-ethylpiperidin-1-yl]-3-methylquinolin-4-yl}carbonyl)amino]-4-[2-(trifluoromethyl)phenyl]pentanoic acid]"
4,28,"Cc1c(N2CCCC(F)(F)C2)nc2ccc(Br)cc2c1C(=O)NCC(CCC(=O)O)c1cc(F)ccc1F (single isomer, unassigned; (+)) [Example 263, (+)-5-({[6-Bromo-2-(3,3-difluoropiperidin-1-yl)-3-methylquinolin-4-yl]carbonyl}amino)-4-(2,5-difluorophenyl)pentanoic acid]"
5,2.3,"Cc1c(N2CCCC(F)(F)C2)nc2ccc(Br)cc2c1C(=O)NCC(CCC(=O)O)c1c(Cl)ccc(Cl)c1Cl (single isomer, unassigned; (-)) [Example 179, (−)-5-({[6-Bromo-2-(3,3-difluoropiperidin-1-yl)-3-methylquinolin-4-yl]carbonyl}amino)-4-(2,3,6-trichlorophenyl)pentanoic acid]"
6,27,"Cc1c(N2CCCCC2)nc2ccc(Br)cc2c1C(=O)NCC(CCC(=O)O)c1c(F)cccc1F (single isomer, unassigned; (+)) [Example 245, (+)-5-({[6-Bromo-3-methyl-2-(piperidin-1-yl)quinolin-4-yl]carbonyl}amino)-4-(2,6-difluorophenyl)pentanoic acid]"
7,7.1,"Cc1c(N2CCCC(F)(F)C2)nc2ccc(Br)cc2c1C(=O)NCC(CCC(=O)O)c1ccccc1Cl (single isomer, unassigned; (+)) [Example 52, (+)-5-({[6-Bromo-2-(3,3-difluoropiperidin-1-yl)-3-methylquinolin-4-yl]carbonyl}amino)-4-(2-chlorophenyl)pentanoic acid]"
8,330,"Cc1c(N2CC3CCCCC3C2)nc2ccc(Br)cc2c1C(=O)NCC(CCC(=O)O)c1ccccc1Cl (racemic) [Example 86, (+/−)-5-({[6-Bromo-3-methyl-2-(octahydro-2H-isoindol-2-yl)quinolin-4-yl]carbonyl}amino)-4-(2-chlorophenyl)pentanoic acid]"
9,430,"COC1CCN(c2nc3ccc(Br)cc3c(C(=O)NCC(CCC(=O)O)c3ccccc3Cl)c2C)C1 (centres unmarked) [Example 41, 5-[({6-Bromo-2-[3-methoxypyrrolidin-1-yl]-3-methylquinolin-4-yl}carbonyl)amino]-4-(2-chlorophenyl)pentanoic acid]"
10,850,"Cc1c(N2CCN(C)CC2)nc2ccc(Br)cc2c1C(=O)NCC(CCC(=O)O)c1ccccc1Cl (racemic) [Example 54, (+/−)-5-({[6-Bromo-3-methyl-2-(4-methylpiperazin-1-yl)quinolin-4-yl]carbonyl}amino)-4-(2-chlorophenyl)pentanoic acid]"
11,550,"Cc1c(N2CCS(=O)(=O)CC2)nc2ccc(Br)cc2c1C(=O)NCC(CCC(=O)O)c1ccccc1Cl (racemic) [Example 87, (+/−)-5-({[6-Bromo-2-(1,1-dioxidothiomorpholin-4-yl)-3-methylquinolin-4-yl]carbonyl}amino)-4-(2-chlorophenyl)pentanoic acid]"
12,1.4,"COc1ccccc1C(CCC(=O)O)CNC(=O)c1c(C)c(N2CCCCCC2)nc2ccc(Br)cc12 (single isomer, unassigned; (+)) [Example 239, (+)-5-({[2-(Azepan-1-yl)-6-bromo-3-methylquinolin-4-yl]carbonyl}amino)-4-(2-methoxyphenyl)pentanoic acid]"
13,9.9,"Cc1c(N2CCCCC2)nc2ccc(Br)cc2c1C(=O)NCC(CCC(=O)O)c1ccccc1C(F)(F)F (single isomer, unassigned; (+)) [Example 113, (+)-5-({[6-Bromo-3-methyl-2-(piperidin-1-yl)quinolin-4-yl]carbonyl}amino)-4-[2-(trifluoromethyl)phenyl]pentanoic acid]"
14,3.2,"CCC1CCCN(c2nc3ccc(Br)cc3c(C(=O)NCC(CCC(=O)O)c3cc(F)ccc3F)c2C)C1 (racemic) [Example 225, 5-[({6-Bromo-2-[3-ethylpiperidin-1-yl]-3-methylquinolin-4-yl}carbonyl)amino]-4-(2,5-difluorophenyl)pentanoic acid]"
15,11,"Cc1c(N2CCCC(F)C2)nc2ccc(Br)cc2c1C(=O)NCC(CCC(=O)O)c1ccccc1C(F)(F)F (single isomer, unassigned; (+)) [Example 190, (+)-5-[({6-Bromo-2-[3-fluoropiperidin-1-yl]-3-methylquinolin-4-yl}carbonyl)amino]-4-[2-(trifluoromethyl)phenyl]pentanoic acid]"
16,2.6,"Cc1c(N2CCCC(F)C2)nc2ccc(Br)cc2c1C(=O)NCC(CCC(=O)O)c1ccccc1OC(F)(F)F (single isomer, unassigned; (+)) [Example 204, (+)-5-[({6-Bromo-2-[3-fluoropiperidin-1-yl]-3-methylquinolin-4-yl}carbonyl)amino]-4-[2-(trifluoromethoxy)phenyl]pentanoic acid]"
17,4.9,"Cc1c(N2CCCC(F)(F)C2)nc2ccc(Br)cc2c1C(=O)NCC(CCC(=O)O)c1ccccc1OC(F)(F)F (single isomer, unassigned; (+)) [Example 134, (+)-5-({[6-Bromo-2-(3,3-difluoropiperidin-1-yl)-3-methylquinolin-4-yl]carbonyl}amino)-4-[2-(trifluoromethoxy)phenyl]pentanoic acid]"
18,2.3,"Cc1c(N2CCCC(C)C2)nc2ccc(Br)cc2c1C(=O)NCC(CCC(=O)O)c1ccccc1OC(F)(F)F (centres unmarked) [Example 140, 5-[({6-Bromo-3-methyl-2-[3-methylpiperidin-1-yl]quinolin-4-yl}carbonyl)amino]-4-[2-(trifluoromethoxy)phenyl]pentanoic acid]"
19,0.68,"Cc1c(N2CCCC(C)C2)nc2ccc(Br)cc2c1C(=O)NCC(CCC(=O)O)c1ccccc1OC(F)(F)F (single isomer, unassigned; (-)) [Example 210, (−)-5-[({6-Bromo-3-methyl-2-[3-methylpiperidin-1-yl]quinolin-4-yl}carbonyl)amino]-4-[2-(trifluoromethoxy)phenyl]pentanoic acid]"
20,4.1,"Cc1c(N2CCCC(C)C2)nc2ccc(Br)cc2c1C(=O)NCC(CCC(=O)O)c1cc(F)ccc1Cl (centres unmarked) [Example 17, 5-[({6-Bromo-3-methyl-2-[3-methylpiperidin-1-yl]quinolin-4-yl}carbonyl)amino]-4-(2-chloro-5-fluorophenyl)pentanoic acid]"
21,6.4,"Cc1c(N2CCC[C@H]2C)nc2ccc(Br)cc2c1C(=O)NCC(CCC(=O)O)c1ccccc1Cl (single isomer, unassigned; (+)) [Example 83]"
22,1.2,"Cc1c(N2CCCC(C)C2)nc2ccc(Br)cc2c1C(=O)NCC(CCC(=O)O)c1ccccc1Cl (single isomer, unassigned; (+)) [Example 48, (+)-5-[({6-Bromo-3-methyl-2-[3-methylpiperidin-1-yl]quinolin-4-yl}carbonyl)amino]-4-(2-chlorophenyl)pentanoic acid]"
23,18,"Cc1ccccc1C(CCC(=O)O)CNC(=O)c1c(C)c(N2CCCC2)nc2ccc(Br)cc12 (racemic) [Example 232, (+/−)-5-({[6-Bromo-3-methyl-2-(pyrrolidin-1-yl)quinolin-4-yl]carbonyl}amino)-4-(2-methylphenyl)pentanoic acid]"
24,57,"CCC1CCCN(c2nc3ccc(Br)cc3c(C(=O)NCC(CCC(=O)O)c3cc(F)ccc3F)c2C)C1 (single isomer, unassigned; (+)) [Example 227, (+)-5-[({6-Bromo-2-[3-ethylpiperidin-1-yl]-3-methylquinolin-4-yl}carbonyl)amino]-4-(2,5-difluorophenyl)pentanoic acid]"
25,11,"Cc1c(N2CCCC(F)C2)nc2ccc(Br)cc2c1C(=O)NCC(CCC(=O)O)c1ccccc1OC(F)(F)F (single isomer, unassigned; (+)) [Example 203, (+)-5-[({6-Bromo-2-[3-fluoropiperidin-1-yl]-3-methylquinolin-4-yl}carbonyl)amino]-4-[2-(trifluoromethoxy)phenyl]pentanoic acid]"
26,65,"Cc1c(N(C)CCc2ccccc2)nc2ccc(Br)cc2c1C(=O)NCC(CCC(=O)O)c1ccccc1Cl (racemic) [Example 95, (+/−)-5-[({6-Bromo-3-methyl-2-[methyl(2-phenylethyl)amino]quinolin-4-yl}carbonyl)amino]-4-(2-chlorophenyl)pentanoic acid]"
27,6.4,"Cc1c(N2CCCCC2)nc2ccc(Br)cc2c1C(=O)NCC(CCC(=O)O)c1ccccc1C(F)(F)F (racemic) [Example 111, (+/−)-5-({[6-Bromo-3-methyl-2-(piperidin-1-yl)quinolin-4-yl]carbonyl}amino)-4-[2-(trifluoromethyl)phenyl]pentanoic acid]"
28,8.5,"Cc1c(N2CCCC(F)(F)C2)nc2ccc(Br)cc2c1C(=O)NCC(CCC(=O)O)c1ccccc1C(F)(F)F (single isomer, unassigned; (-)) [Example 118, (−)-5-({[6-Bromo-2-(3,3-difluoropiperidin-1-yl)-3-methylquinolin-4-yl]carbonyl}amino)-4-[2-(trifluoromethyl)phenyl]pentanoic acid]"
29,4,"Cc1c(N2CCCC(F)C2)nc2ccc(Br)cc2c1C(=O)NCC(CCC(=O)O)c1ccccc1Cl (single isomer, unassigned; (-)) [Example 185, (−)-5-[({6-Bromo-2-[3-fluoropiperidin-1-yl]-3-methylquinolin-4-yl}carbonyl)amino]-4-(2-chlorophenyl)pentanoic acid]"
